Source: PubChem BioAssay AID1963969 (Molecular Pharmacology Branch, DTP, NCI, 2024)
Each block holds one molecule with its values, some of them ahead of it.

Tested on: 817829-284-R-J1-PDC multi-cell spheroid viability
Test: Anticancer human tumor 817829-284-R-J1-PDC patient-derived colon adenocarcinoma cell line growth inhibition [PI3K]
Details: for IC50: curve of first compound; for viability, T/C: stronger effect = lower value
How it was run: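 Viability of mixed-cell spheroids was determined after exposure to pairwise combinations, one partner being inavolisib, alpelisib, duvelisib or copanlisib. Highest tested concentration matched clinical Cmax where known and 10 microM where not, descending in half-log steps.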

[1] = second compound 0.00316 µM, first compound 0.0316 µM
[2] = second compound 0.00316 µM, first compound 0.1 µM
[3] = second compound 0.01 µM, first compound 0.0316 µM
[4] = second compound 0.01 µM, first compound 0.1 µM
[5] = second compound 0.0316 µM, first compound 0.0316 µM
[6] = second compound 0.0316 µM, first compound 0.1 µM
[7] = second compound 0.1 µM, first compound 0.0316 µM
[8] = second compound 0.1 µM, first compound 0.1 µM
[9] = second compound 0.316 µM, first compound 0.0316 µM
[10] = second compound 0.316 µM, first compound 0.1 µM
[11] = second compound 1 µM, first compound 0.0316 µM
[12] = second compound 1 µM, first compound 0.1 µM
[13] = second compound 0.00316 µM, first compound 0.316 µM
[14] = second compound 0.00316 µM, first compound 1 µM
[15] = second compound 0.00316 µM, first compound 3.16 µM
[16] = second compound 0.00316 µM, first compound 10 µM
[17] = second compound 0.01 µM, first compound 0.316 µM
[18] = second compound 0.01 µM, first compound 1 µM
[19] = second compound 0.01 µM, first compound 3.16 µM
[20] = second compound 0.01 µM, first compound 10 µM
[21] = second compound 0.0316 µM, first compound 0.316 µM
[22] = second compound 0.0316 µM, first compound 1 µM
[23] = second compound 0.0316 µM, first compound 3.16 µM
[24] = second compound 0.0316 µM, first compound 10 µM
[25] = second compound 0.1 µM, first compound 0.316 µM
[26] = second compound 0.1 µM, first compound 1 µM
[27] = second compound 0.1 µM, first compound 3.16 µM
[28] = second compound 0.1 µM, first compound 10 µM
[29] = second compound 0.316 µM, first compound 0.316 µM
[30] = second compound 0.316 µM, first compound 1 µM
[31] = second compound 0.316 µM, first compound 3.16 µM
[32] = second compound 0.316 µM, first compound 10 µM
[33] = second compound 1 µM, first compound 0.316 µM
[34] = second compound 1 µM, first compound 1 µM
[35] = second compound 1 µM, first compound 3.16 µM
[36] = second compound 1 µM, first compound 10 µM
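Further: spheroids exposed to agents for seven days before readout.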
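Wherever viability, T/C is given: percent of vehicle DMSO control viability which is 100%.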

IC50 (second compound 0.00316 µM): 52.3 nM
IC50 (second compound 0.01 µM): > 100 nM
IC50 (second compound 0.0316 µM): 12.3 nM
IC50 (second compound 0.1 µM): < 0.316 nM
IC50 (second compound 0.316 µM): < 0.316 nM
IC50 (second compound 1 µM): < 0.316 nM
Compound: CC(=O)c1c(C)c2cnc(Nc3ccc(N4CCNCC4)cn3)nc2n(C2CCCC2)c1=O + COc1c(OCCCN2CCOCC2)ccc2c3n(c(=NC(=O)c4cnc(N)nc4)nc12)CCN3
viability, T/C (second compound 0.00316 µM, first compound 0.000316 µM): 79.1%
viability, T/C (second compound 0.00316 µM, first compound 0.001 µM): 85.2%
viability, T/C (second compound 0.00316 µM, first compound 0.00316 µM): 66.7%
viability, T/C (second compound 0.00316 µM, first compound 0.01 µM): 74.5%
viability, T/C [1]: 66.6%
viability, T/C [2]: 30.2%
viability, T/C (second compound 0.01 µM, first compound 0.000316 µM): 91.1%
viability, T/C (second compound 0.01 µM, first compound 0.001 µM): 60%
viability, T/C (second compound 0.01 µM, first compound 0.00316 µM): 56%
viability, T/C (second compound 0.01 µM, first compound 0.01 µM): 55.7%
viability, T/C [3]: 75.7%
viability, T/C [4]: 34%
viability, T/C (second compound 0.0316 µM, first compound 0.000316 µM): 65.2%
viability, T/C (second compound 0.0316 µM, first compound 0.001 µM): 40.6%
viability, T/C (second compound 0.0316 µM, first compound 0.00316 µM): 48.3%
viability, T/C (second compound 0.0316 µM, first compound 0.01 µM): 60.6%
viability, T/C [5]: 33.5%
viability, T/C [6]: 24.3%
viability, T/C (second compound 0.1 µM, first compound 0.000316 µM): 29.2%
viability, T/C (second compound 0.1 µM, first compound 0.001 µM): 30.3%
viability, T/C (second compound 0.1 µM, first compound 0.00316 µM): 34.6%
viability, T/C (second compound 0.1 µM, first compound 0.01 µM): 21.1%
viability, T/C [7]: 22.7%
viability, T/C [8]: 25.3%
viability, T/C (second compound 0.316 µM, first compound 0.000316 µM): 16.9%
viability, T/C (second compound 0.316 µM, first compound 0.001 µM): 22.2%
viability, T/C (second compound 0.316 µM, first compound 0.00316 µM): 20.8%
viability, T/C (second compound 0.316 µM, first compound 0.01 µM): 17.9%
viability, T/C [9]: 18.2%
viability, T/C [10]: 16.2%
viability, T/C (second compound 1 µM, first compound 0.000316 µM): 11.2%
viability, T/C (second compound 1 µM, first compound 0.001 µM): 10.2%
viability, T/C (second compound 1 µM, first compound 0.00316 µM): 8.91%
viability, T/C (second compound 1 µM, first compound 0.01 µM): 12.2%
viability, T/C [11]: 11.6%
viability, T/C [12]: 7.24%

IC50 (second compound 0.00316 µM): 1900 nM
IC50 (second compound 0.01 µM): 4240 nM
IC50 (second compound 0.0316 µM): 2300 nM
IC50 (second compound 0.1 µM): 31.6 nM
IC50 (second compound 0.316 µM): < 31.6 nM
IC50 (second compound 1 µM): < 31.6 nM
Compound: CCCS(=O)(=O)Nc1ccc(F)c(C(=O)c2c[nH]c3ncc(-c4ccc(Cl)cc4)cc23)c1F + COc1c(OCCCN2CCOCC2)ccc2c3n(c(=NC(=O)c4cnc(N)nc4)nc12)CCN3
viability, T/C [1]: 117%
viability, T/C [2]: 87%
viability, T/C [13]: 71.5%
viability, T/C [14]: 66.4%
viability, T/C [15]: 59.5%
viability, T/C [16]: 10.7%
viability, T/C [3]: 104%
viability, T/C [4]: 53.6%
viability, T/C [17]: 66.5%
viability, T/C [18]: 70.9%
viability, T/C [19]: 64.1%
viability, T/C [20]: 8.97%
viability, T/C [5]: 45.4%
viability, T/C [6]: 70%
viability, T/C [21]: 43.8%
viability, T/C [22]: 64.1%
viability, T/C [23]: 47.9%
viability, T/C [24]: 10.2%
viability, T/C [7]: 34.4%
viability, T/C [8]: 39.3%
viability, T/C [25]: 71.2%
viability, T/C [26]: 26.8%
viability, T/C [27]: 28.2%
viability, T/C [28]: 14.4%
viability, T/C [9]: 21.7%
viability, T/C [10]: 19.6%
viability, T/C [29]: 21.3%
viability, T/C [30]: 16%
viability, T/C [31]: 16.1%
viability, T/C [32]: 9.88%
viability, T/C [11]: 10%
viability, T/C [12]: 14.3%
viability, T/C [33]: 8.54%
viability, T/C [34]: 6.57%
viability, T/C [35]: 9.78%
viability, T/C [36]: 4.54%

IC50 (second compound 0.00316 µM): > 10000 nM
IC50 (second compound 0.01 µM): > 10000 nM
IC50 (second compound 0.0316 µM): 3040 nM
IC50 (second compound 0.1 µM): < 31.6 nM
IC50 (second compound 0.316 µM): < 31.6 nM
IC50 (second compound 1 µM): < 31.6 nM
Compound: CNC(=O)c1ccc(N2C(=S)N(c3ccc(C#N)c(C(F)(F)F)c3)C(=O)C2(C)C)cc1F + COc1c(OCCCN2CCOCC2)ccc2c3n(c(=NC(=O)c4cnc(N)nc4)nc12)CCN3
viability, T/C [1]: 72.7%
viability, T/C [2]: 107%
viability, T/C [13]: 118%
viability, T/C [14]: 110%
viability, T/C [15]: 70.9%
viability, T/C [16]: 55.9%
viability, T/C [3]: 102%
viability, T/C [4]: 107%
viability, T/C [17]: 117%
viability, T/C [18]: 58.2%
viability, T/C [19]: 81.3%
viability, T/C [20]: 55%
viability, T/C [5]: 52.3%
viability, T/C [6]: 61.2%
viability, T/C [21]: 73.6%
viability, T/C [22]: 105%
viability, T/C [23]: 49.2%
viability, T/C [24]: 27.3%
viability, T/C [7]: 35.4%
viability, T/C [8]: 38.6%
viability, T/C [25]: 31.2%
viability, T/C [26]: 36.3%
viability, T/C [27]: 31.5%
viability, T/C [28]: 21.7%
viability, T/C [9]: 19.9%
viability, T/C [10]: 23%
viability, T/C [29]: 23.2%
viability, T/C [30]: 18.5%
viability, T/C [31]: 19.1%
viability, T/C [32]: 17.7%
viability, T/C [11]: 11.2%
viability, T/C [12]: 12.2%
viability, T/C [33]: 9.45%
viability, T/C [34]: 13.1%
viability, T/C [35]: 11.1%
viability, T/C [36]: 9.44%
